Data from publication PMC12064818, “A general assay platform to study protein pharmacology using ligand-dependent structural dynamics” (Nature Communications, 2025).
Several values for one entry are separate records, joined by “and”; a condition that tells them apart may be missing. Equal values may be shown once.

Target: T1, T7 Lig-N-HiBiT (DNA ligase) (Escherichia phage T7, UniProt P00969)
T1 sequence (P00969 2-359): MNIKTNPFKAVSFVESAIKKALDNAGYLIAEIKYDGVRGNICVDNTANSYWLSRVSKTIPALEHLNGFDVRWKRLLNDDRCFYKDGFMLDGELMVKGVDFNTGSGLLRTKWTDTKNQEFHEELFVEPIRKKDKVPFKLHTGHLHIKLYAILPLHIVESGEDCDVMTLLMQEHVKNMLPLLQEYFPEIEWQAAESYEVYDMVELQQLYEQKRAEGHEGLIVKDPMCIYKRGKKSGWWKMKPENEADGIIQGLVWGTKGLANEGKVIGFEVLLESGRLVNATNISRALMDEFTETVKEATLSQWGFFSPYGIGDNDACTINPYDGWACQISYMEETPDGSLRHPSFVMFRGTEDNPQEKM
Test: SDR assay (aqueous ligand dispense), T7 Lig-N-HiBiT
Settings: for SDR assay data: 1 nM T7 Lig-N-HiBiT; for SDR assay data / SDR response: Log [ATP]; for SDR response: replicates

[1] = T7 Lig-N-HiBiT (1 nM), ligand 100 µM

What does the source list for Nc1ncnc2c1ncn2[C@@H]1O[C@H](COP(=O)(O)OP(=O)(O)OP(=O)(O)O)[C@@H](O)[C@H]1O [ATP]?
EC50: ≥ 100 µM; SDR assay data (M -2.85): 436.8 and 379.9 and 405.2; SDR assay data (M -3.15): 279.5 and 253.1 and 256.0; SDR assay data (M -3.45): 148.4 and 136.3 and 161.1; SDR assay data (M -3.75): 97.7 and 88.5 and 106.1; SDR assay data (M -4.05): 63.0 and 57.2 and 69.3; SDR assay data (M -4.35): 47.1 and 49.4 and 60.4; SDR assay data (M -4.65): 42.9 and 27.8 and 47.0; SDR assay data (M -4.95): 31.1 and 25.7 and 35.7; SDR assay data (M -5.55): 21.1 and 18.2 and 32.8; SDR assay data (M -6.46): 17.8 and 13.4 and 26.6; SDR assay data (M -6.76): 16.5 and 24.2 and 25.4; SDR response (M -2.85): 405.2 and 436.8 and 379.9; SDR response (M -3.15): 256.0 and 279.5 and 253.1; SDR response (M -3.45): 161.1 and 148.4 and 136.3; SDR response (M -3.75): 106.1 and 97.7 and 88.5; SDR response (M -4.05): 69.3 and 63.0 and 57.2; SDR response (M -4.35): 60.4 and 47.1 and 49.4; SDR response (M -4.65): 47.0 and 42.9 and 27.8; SDR response (M -4.95): 35.7 and 31.1 and 25.7; SDR response (M -5.25): 40.3 and 24.1 and 20.1; SDR response (M -5.55): 32.8 and 21.1 and 18.2; SDR response (M -5.86): 31.3 and 18.8; SDR response (M -6.16): 32.1 and 13.9 and 17.4; SDR response (M -6.46): 26.6 and 17.8 and 13.4; SDR response (M -6.76): 25.4 and 16.5 and 24.2; SDR assay response (in words) (T7 Lig-N-HiBiT): strong SDR signal; SDR assay statistics Ave RLU [1]: 88.7 RLU; SDR assay statistics S:B [1]: 2.0; SDR assay statistics S:N [1]: 5.7; SDR assay statistics Z’ [1]: 0.337; max resp (T7 Lig-N-HiBiT, maximum response): 407.3
